Test results from patent publication US6861390B2, “Derivatives of UK-2A” (priority 2001, dated 2005).

Assays:
[1] = system: Phytophthora infestans (PHYTIN); experiment: microbe, parasite or virus in culture; type: cell-based; settings: in Secale cereale, read-out: T8 PHYTIN in vitro Growth Inhibition
[2] = system: Leptosphaeria nodorum (LEPTNO); experiment: Glume Blotch of Wheat, whole plant 24 Hour Protectant (T2); settings: Parastagonospora nodorum; wheat (cultivar Yuma), sprayed at 100 ppm, inoculated after 24 hours; read-out: T2 LEPTNO in vivo 1 Day Protectant, control of fungal infection
[3] = system: Magnaporthe grisea (Pyricularia oryzae, PYRIOR); experiment: microbe, parasite or virus in culture; type: cell-based; settings: read-out: T9 PYRIOR in vitro Growth Inhibition
[4] = system: Erysiphe graminis (ERYSGT); experiment: Powdery Mildew of Wheat, whole plant 24 Hour Protectant (T1); settings: Blumeria graminis, in Triticum aestivum, read-out: T1 ERYSGT in vivo 1 Day Protectant, control of fungal infection
Experimental: Compound formulation was accomplished by dissolving technical materials in acetone, with serial dilutions then made in acetone to obtain desired concentrations. Final treatment volumes were obtained by adding 9 volumes 0.01% Triton X-100.
Powdery Mildew of Wheat (Erysiphe graminis—ERYSGT) (24 Hour Protectant): Wheat (cultivar Monon) was grown in a soilless peat-based potting mixture (“Metromix”) and mineral soil (50/50 mix) until the seedlings were 10-20 cm tall. These plants were then sprayed to run-off with the test compound at a rate of 100 ppm. After 24 hours the test plants were inoculated by dusting with conidia from powdery mildew infected wheat plants. The plants were then transferred to the greenhouse until disease developed on the untreated control plants.

[5] = system: Stagonospora nodorum (Leptosphaeria nodorum, LEPTNO); experiment: microbe, parasite or virus in culture; type: cell-based; settings: Parastagonospora nodorum, read-out: T7 LEPTNO in vitro Growth Inhibition
[6] = system: Rhizoctonia solani (RHIZSO); experiment: microbe, parasite or virus in culture; type: cell-based; settings: read-out: T10 RHIZSO in vitro Growth Inhibition
[7] = system: Septoria tritici (SEPTTR); experiment: Leaf Blotch of Wheat, whole plant 24 Hour Protectant (T6); settings: Zymoseptoria tritici; wheat (cultivar Monon), sprayed at 100 ppm, inoculated after 24 hours; read-out: T6 SEPTTR in vivo 1 Day Protectant, control of fungal infection
[8] = system: Phytophthora infestans (PHYTIN); experiment: whole plant or invertebrate; settings: in Solanum lycopersicum, 24 h, read-out: T3 PHYTIN in vivo 1 Day Protectant, control of fungal infection
Ustilago maydis (USTIMA) = experiment: microbe, parasite or virus in culture; type: cell-based; settings: Mycosarcoma maydis, read-out: T12 USTIMA in vitro Growth Inhibition
[9] = system: Mycosphaerella graminicola (Septoria tritici, SEPTTR); experiment: microbe, parasite or virus in culture; type: cell-based; settings: Zymoseptoria tritici, read-out: T11 SEPTTR in vitro Growth Inhibition
[10] = system: Puccinia recondita (PUCCRT); experiment: Brown Rust of Wheat, whole plant 24 Hour Protectant (T5); settings: wheat (cultivar Yuma), sprayed at 100 ppm, inoculated after 24 hours, read-out: T5 PUCCRT in vivo 1 Day Protectant, control of fungal infection

Row | Compound | melting point [°C] | inhibition at 25 ppm [1] [%] | pest or weed control at 100 ppm [2] [%] | inhibition at 25 ppm [3] [%] | pest or weed control at 100 ppm [4] [%] | inhibition at 25 ppm [5] [%] | inhibition at 25 ppm [6] [%] | pest or weed control at 100 ppm [7] [%] | pest or weed control at 100 ppm [8] [%] | inhibition at 25 ppm (Ustilago maydis (USTIMA)) [%] | inhibition at 25 ppm [9] [%] | pest or weed control at 100 ppm [10] [%]
1 | COc1ccnc(C(=O)N[C@H]2COC(=O)[C@H](Cc3ccccc3)[C@@H](OC(=O)C(C)C)[C@H](C)OC2=O)c1OCOC(C)C [Compound 7] | 124 to 127 | < 80 | 75 to 100 | < 80 | 25 to 74 | > 80 | < 80 | 75 to 100 | < 25 | > 80 | < 80 | 75 to 100
2 | COc1ccnc(C(=O)N[C@H]2COC(=O)[C@H](Cc3ccccc3)[C@@H](OC(=O)C(C)C)[C@H](C)OC2=O)c1OCOCC(C)C [Compound 9] | 133 to 136 | < 80 | 75 to 100 | < 80 | < 25 | > 80 | > 80 | 25 to 74 | < 25 | > 80 | > 80 | 75 to 100
3 | COc1ccnc(C(=O)N[C@H]2COC(=O)[C@H](Cc3ccccc3)[C@@H](OC(=O)C(C)C)[C@H](C)OC2=O)c1OCO[Si](C)(C)C [Compound 13] | 50 to 52 | < 80 | 75 to 100 | < 80 | < 25 | > 80 | > 80 | 75 to 100 | < 25 | < 80 | < 80 | 75 to 100
4 | COc1ccnc(C(=O)N[C@H]2COC(=O)[C@H](Cc3ccccc3)[C@@H](OC(=O)C(C)C)[C@H](C)OC2=O)c1OCOCCCl [Compound 14] | 140 to 143 | < 80 | 75 to 100 | < 80 | < 25 | > 80 | < 80 | 75 to 100 | < 25 | < 80 | < 80 | 75 to 100
5 | COc1ccnc(C(=O)N[C@H]2COC(=O)[C@H](Cc3ccccc3)[C@@H](OC(=O)C(C)C)[C@H](C)OC2=O)c1OCOCCC#N [Compound 15] | 62 to 67 | < 80 | 75 to 100 | < 80 | < 25 | > 80 | > 80 | 75 to 100 | < 25 | > 80 | < 80 | 75 to 100
6 | COc1ccnc(C(=O)N[C@H]2COC(=O)[C@H](Cc3ccccc3)[C@@H](OC(=O)C(C)C)[C@H](C)OC2=O)c1OCOC(C)=O [Compound 20] | 146 to 147 | < 80 | 75 to 100 | < 80 | 75 to 100 | > 80 | < 80 | 75 to 100 | < 25 | > 80 | < 80 | 75 to 100
7 | CCCC(=O)OCOc1c(OC)ccnc1C(=O)N[C@H]1COC(=O)[C@H](Cc2ccccc2)[C@@H](OC(=O)C(C)C)[C@H](C)OC1=O [Compound 22] | 102 to 105 | < 80 | 75 to 100 | < 80 | 75 to 100 | > 80 | < 80 | 75 to 100 | < 25 | < 80 | < 80 | 75 to 100
8 | COc1ccnc(C(=O)N[C@H]2COC(=O)[C@H](Cc3ccccc3)[C@@H](OC(=O)C(C)C)[C@H](C)OC2=O)c1OCOC(=O)C(C)(C)C [Compound 24] | 178 to 179 | < 80 | 75 to 100 | > 80 | 25 to 74 | < 80 | < 80 | 75 to 100 | < 25 | < 80 | > 80 | 75 to 100
9 | COc1ccnc(C(=O)N[C@H]2COC(=O)[C@H](Cc3ccccc3)[C@@H](OC(=O)C(C)C)[C@H](C)OC2=O)c1OC(C)OC(C)=O (stereo partly drawn) [Compound 25] | 58 to 65 | < 80 | 75 to 100 | < 80 | < 25 | > 80 | < 80 | 75 to 100 | < 25 | > 80 | > 80 | 75 to 100
10 | COc1ccnc(C(=O)N[C@H]2COC(=O)[C@H](Cc3ccccc3)[C@@H](OC(=O)C(C)C)[C@H](C)OC2=O)c1OCOC(=O)C1CC1 [Compound 26] | 152 to 153 | < 80 | 75 to 100 | < 80 | 25 to 74 | > 80 | < 80 | 75 to 100 | < 25 | < 80 | < 80 | 75 to 100
11 | COCCC(=O)OCOc1c(OC)ccnc1C(=O)N[C@H]1COC(=O)[C@H](Cc2ccccc2)[C@@H](OC(=O)C(C)C)[C@H](C)OC1=O [Compound 27] | 84 to 86 | < 80 | 75 to 100 | > 80 | 75 to 100 | > 80 | < 80 | 75 to 100 | < 25 | < 80 | > 80 | 75 to 100
12 | CCOCCC(=O)OCOc1c(OC)ccnc1C(=O)N[C@H]1COC(=O)[C@H](Cc2ccccc2)[C@@H](OC(=O)C(C)C)[C@H](C)OC1=O [Compound 28] | 50 to 55 | < 80 | 75 to 100 | > 80 | 25 to 74 | > 80 | > 80 | 75 to 100 | < 25 | > 80 | > 80 | 75 to 100
